Test system: Pseudomonas putida (ATCC 31483)
Assay: Bacterial growth in growth medium containing ceftazidime hydrate (96-well plate, turbidity)
Type: cell-based
Design: key to bacterial growth (turbidity): “+” indicates growth; “−” indicates no growth
Settings: overnight at 37° C.
Description: Samples of growth media were prepared by dissolving a tablet of each composition in 1 liter of recovery media (modified Listeria Recovery Broth (MLRB), available from 3M Company; St. Paul, Minn.). The tablets dissolved within 4.5 minutes. A sample of growth media was prepared as a control by dissolving 10 mg of Ceftazidime hydrate powder (product number C3809-5G available from Sigma Aldrich; St. Louis, Mo.) in 1 liter of MLRB.
A bacterial suspension was prepared by inoculating a pure culture of Pseudomonas putida (ATCC 31483 obtained from ATCC, Manassas, Va.) into tryptic soy broth (BD™ Tryptic Soy Broth; Becton Dickinson; Sparks, Md.) and incubating at 37° C. The suspension was diluted 1:1,000 in SMB (Standard Methods Buffer; 3M Company; St. Paul, Minn.). The diluted suspension was further diluted 1:10,000-diluted in SMB growth medium containing ceftazidime concentrations shown in Table 10. Four duplicates of each sample were pipetted into a 96-well plate as follows: Growth Control with no Ceftazidime hydrate; an Undiluted Control with 10 micrograms Ceftazidime hydrate/microliter of the bacterial suspension; and each dilution of inoculated medium containing the concentration of ceftazidime hydrate shown in the Table 10. The 96-well plate was incubated overnight at 37° C. and examined visually for bacterial growth. Turbidity in the well indicated growth.

## CC(C)(O/N=C(\C(=O)N[C@@H]1C(=O)N2C(C(=O)[O-])=C(C[n+]3ccccc3)CS[C@H]12)c1csc(N)n1)C(=O)O [Powder Control, Ceftazidime hydrate]
2.5 mcg CDH/microliter
  bacterial growth (turbidity): +
3.75 mcg CDH/microliter
  bacterial growth (turbidity): +
5.0 mcg CDH/microliter
  bacterial growth (turbidity): −
6.25 mcg CDH/microliter
  bacterial growth (turbidity): −
7.5 mcg CDH/microliter
  bacterial growth (turbidity): −
8.75 mcg CDH/microliter
  bacterial growth (turbidity): −
Undiluted Control - 10 mcg CDH/microliter
  bacterial growth (turbidity): −
Delivered in tablet or powder
  lowest concentration of ceftazidime hydrate showing no growth: 5 mcg/microliter of sample

Source: patent US10378041B2, “Effervescent compositions and uses thereof” (3M INNOVATIVE PROPERTIES COMPANY, priority 2010, dated 2019)
